Data published in patent US20020052503A1, “Substituted benzolactam compounds as substance p antagonists” (priority 1995, published 2002).

Biological target: T1, substance P receptor sites in human IM-9 cells (Homo sapiens, UniProt P25103)
T1 construct: endogenous in cells; host or cells: human IM-9 cells (whole cells)
Assay: IM-9 binding assay (inhibition of [^3H]SP binding)
Conditions: [^3H]SP binding to human IM-9 cells
Protocol: The activity of the compounds of the present invention, as substance P antagonists, is determined by their ability to inhibit the binding of substance P at its 30 receptor sites in CHO-cells which reveal NK1 receptor or IM-9 cells employing radioactive ligands. The substance P antagonist activity of the herein described compounds is evaluated by using the standard assay procedure described by D. G. Payan et al., as reported in the The Journal of Immunology . 133, 3260 (1984). This method essentially involves determining the concentration of the individual compound required to reduce by 50% the amount of radiolabelled substance P ligands at their receptor sites in said isolated cow tissues or IM-9 cells, thereby affording characteristic IC50 values for each compound tested. More specifically, inhibition of [^3H]SP binding to human IM-9 cells by compounds are determined in assay buffer (50 mM Tris-HCl (pH 7.4), 1 mM MnCl2, 0.02% bovine serum albumin, bacitracin (40 μg/ml), leupeptin (4 μg/ml), chymostatin (2 μg/ml) and phosphoramidon (30 μg/ml)). […] Nonspecific binding is defined as the radioactivity remaining in the presence of 1 μM SP. The filters are placed into tubes and counted using liquid scintillation counter.

T1 sequence (P25103 whole entry): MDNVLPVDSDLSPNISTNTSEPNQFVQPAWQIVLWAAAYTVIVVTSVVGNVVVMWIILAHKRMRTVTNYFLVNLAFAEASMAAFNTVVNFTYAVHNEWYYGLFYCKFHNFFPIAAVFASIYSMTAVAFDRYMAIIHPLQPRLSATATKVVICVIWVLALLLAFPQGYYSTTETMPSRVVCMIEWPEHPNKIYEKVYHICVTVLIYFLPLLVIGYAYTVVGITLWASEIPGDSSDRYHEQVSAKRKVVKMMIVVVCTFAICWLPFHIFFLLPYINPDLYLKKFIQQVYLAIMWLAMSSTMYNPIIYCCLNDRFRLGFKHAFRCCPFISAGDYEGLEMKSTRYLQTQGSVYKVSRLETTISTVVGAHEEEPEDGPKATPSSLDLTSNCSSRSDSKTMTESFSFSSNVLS

IC50 [nM] | Compound
< 0.1 | COc1cc2c(cc1CN[C@H]1CCCN[C@H]1c1ccccc1)N(C)C(=O)CC2.Cl.Cl [Compound 21, (2S,3S)-3-(6-Methoxy-1-methyl-2-oxo-1,2,3,4-tetrahydroquinolin-7-yl)methylamino-2-phenylpiperidine dihydrochloride]

Tested on: [Sar^9, Met(O2)^11]substance P-induced hind paw tapping in gerbils
Assay: [Sar^9, Met(O2)^11]substance P-induced tapping test
Format: in vivo, gerbil
Conditions: Meriones unguiculatus, % inhibition at 0.3 mg/kg scoring
Protocol: The activity of the compounds of this invention against CNS disorder is determined by [Sar^9, Met(O2)^11]substance P-induced tapping test in gerbils. More specifically, gerbils are lightly anesthetized with ether and the skull surface is exposed. [Sar^9, Met(O2)^11]substance P or vehicle (5 μl) are administered directly into the lateral ventricles via a 25 gauge needle inserted 3.5 mm below lambda. Following injection, gerbils are placed in 2 l beaker individually and monitored for repetitive hind paw tapping. Some compounds prepared in the following Examples were tested in accordance with these testing methods.

Compound | inhibition at 0.3 mg/kg [%]
COc1cc2c(cc1CN[C@H]1CCCN[C@H]1c1ccccc1)N(C)C(=O)CC2.Cl.Cl [Compound 21, (2S,3S)-3-(6-Methoxy-1-methyl-2-oxo-1,2,3,4-tetrahydroquinolin-7-yl)methylamino-2-phenylpiperidine dihydrochloride] | 52

Biological target: T2, Ca^2+ channel in rat heart membrane preparation (Rattus norvegicus, UniProt P22002)
T2 construct: from tissue; host or cells: rat heart membrane preparation
Assay: verapamil binding study ([^3H]desmethoxyverapamil)
Conditions: read-out: verapamil binding study (Ca^2+ channel binding affinity)
Protocol: The adverse effect on Ca^2+ channel binding affinity is determined by verapamil binding study in rat heart membrane preparation. More specifically, verapamil binding study is performed as previously described by Reynolds et al., (J. Pharmacol. Exp. Ther. 237, 731, 1986). Briefly, incubations are initiated by the addition of tissue to tubes containing 0.25 nM [^3H]desmethoxyverapamil and various concentrations of compounds (total volume; 1 ml). Nonspecific binding is defined as radioligand binding remaining in the presence of 3-10 μM methoxyverapamil.

T2 sequence (P22002 whole entry, other chains not shown): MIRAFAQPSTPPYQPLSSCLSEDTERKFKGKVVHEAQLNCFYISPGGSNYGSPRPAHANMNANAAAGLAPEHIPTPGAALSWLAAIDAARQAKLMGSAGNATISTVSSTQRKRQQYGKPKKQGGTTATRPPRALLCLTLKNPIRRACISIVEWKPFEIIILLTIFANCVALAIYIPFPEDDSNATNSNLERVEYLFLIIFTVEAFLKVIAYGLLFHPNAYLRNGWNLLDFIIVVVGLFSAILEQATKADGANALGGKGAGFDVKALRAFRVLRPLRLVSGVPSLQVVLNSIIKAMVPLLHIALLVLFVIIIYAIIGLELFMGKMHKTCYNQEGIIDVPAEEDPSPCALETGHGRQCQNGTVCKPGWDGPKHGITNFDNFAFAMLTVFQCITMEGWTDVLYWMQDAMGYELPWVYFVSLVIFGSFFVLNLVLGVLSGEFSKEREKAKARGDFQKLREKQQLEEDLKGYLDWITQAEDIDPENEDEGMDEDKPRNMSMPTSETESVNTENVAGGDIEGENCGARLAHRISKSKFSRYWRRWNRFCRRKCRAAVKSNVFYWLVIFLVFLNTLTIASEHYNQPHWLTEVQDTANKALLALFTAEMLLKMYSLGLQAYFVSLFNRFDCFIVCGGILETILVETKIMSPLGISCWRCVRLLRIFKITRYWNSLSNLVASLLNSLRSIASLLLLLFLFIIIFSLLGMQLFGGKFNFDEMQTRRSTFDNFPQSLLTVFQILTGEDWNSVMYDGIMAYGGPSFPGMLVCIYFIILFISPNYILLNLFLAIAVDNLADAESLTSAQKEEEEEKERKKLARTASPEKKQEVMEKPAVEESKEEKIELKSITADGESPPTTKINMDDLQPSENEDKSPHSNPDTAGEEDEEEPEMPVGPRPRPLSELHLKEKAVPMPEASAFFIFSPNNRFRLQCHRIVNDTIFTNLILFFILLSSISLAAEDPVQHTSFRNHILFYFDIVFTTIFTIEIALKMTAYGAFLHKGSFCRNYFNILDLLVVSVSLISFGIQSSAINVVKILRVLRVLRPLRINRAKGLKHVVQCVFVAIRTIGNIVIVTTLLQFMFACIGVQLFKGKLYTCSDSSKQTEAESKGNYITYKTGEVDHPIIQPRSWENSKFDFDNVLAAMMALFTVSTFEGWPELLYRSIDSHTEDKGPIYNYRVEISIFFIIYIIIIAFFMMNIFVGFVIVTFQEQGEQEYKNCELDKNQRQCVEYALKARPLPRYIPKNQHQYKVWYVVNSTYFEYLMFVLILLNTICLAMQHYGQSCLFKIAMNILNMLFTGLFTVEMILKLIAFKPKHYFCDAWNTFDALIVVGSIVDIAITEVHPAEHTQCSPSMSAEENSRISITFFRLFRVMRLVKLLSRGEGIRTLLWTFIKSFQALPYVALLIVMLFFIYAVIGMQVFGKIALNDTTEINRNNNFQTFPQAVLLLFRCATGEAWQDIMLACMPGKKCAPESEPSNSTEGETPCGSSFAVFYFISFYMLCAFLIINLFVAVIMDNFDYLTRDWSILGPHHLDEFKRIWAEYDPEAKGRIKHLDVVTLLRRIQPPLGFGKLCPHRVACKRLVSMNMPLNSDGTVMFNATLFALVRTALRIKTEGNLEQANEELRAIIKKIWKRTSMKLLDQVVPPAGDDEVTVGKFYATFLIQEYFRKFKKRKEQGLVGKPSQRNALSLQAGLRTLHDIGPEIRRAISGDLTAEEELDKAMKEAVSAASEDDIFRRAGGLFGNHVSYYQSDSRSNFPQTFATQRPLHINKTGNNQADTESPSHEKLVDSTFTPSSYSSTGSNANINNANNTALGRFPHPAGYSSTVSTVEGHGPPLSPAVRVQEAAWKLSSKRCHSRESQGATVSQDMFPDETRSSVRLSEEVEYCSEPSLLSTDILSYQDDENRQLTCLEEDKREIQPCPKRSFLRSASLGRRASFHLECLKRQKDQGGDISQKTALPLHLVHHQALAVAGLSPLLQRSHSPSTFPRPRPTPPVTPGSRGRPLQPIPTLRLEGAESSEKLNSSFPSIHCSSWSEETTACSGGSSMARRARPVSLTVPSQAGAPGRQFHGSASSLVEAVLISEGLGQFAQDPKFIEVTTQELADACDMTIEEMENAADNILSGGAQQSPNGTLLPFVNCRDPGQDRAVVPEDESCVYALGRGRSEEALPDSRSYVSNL
T2 sequence (P54290 25-944 partner limits assumed, other chains not shown): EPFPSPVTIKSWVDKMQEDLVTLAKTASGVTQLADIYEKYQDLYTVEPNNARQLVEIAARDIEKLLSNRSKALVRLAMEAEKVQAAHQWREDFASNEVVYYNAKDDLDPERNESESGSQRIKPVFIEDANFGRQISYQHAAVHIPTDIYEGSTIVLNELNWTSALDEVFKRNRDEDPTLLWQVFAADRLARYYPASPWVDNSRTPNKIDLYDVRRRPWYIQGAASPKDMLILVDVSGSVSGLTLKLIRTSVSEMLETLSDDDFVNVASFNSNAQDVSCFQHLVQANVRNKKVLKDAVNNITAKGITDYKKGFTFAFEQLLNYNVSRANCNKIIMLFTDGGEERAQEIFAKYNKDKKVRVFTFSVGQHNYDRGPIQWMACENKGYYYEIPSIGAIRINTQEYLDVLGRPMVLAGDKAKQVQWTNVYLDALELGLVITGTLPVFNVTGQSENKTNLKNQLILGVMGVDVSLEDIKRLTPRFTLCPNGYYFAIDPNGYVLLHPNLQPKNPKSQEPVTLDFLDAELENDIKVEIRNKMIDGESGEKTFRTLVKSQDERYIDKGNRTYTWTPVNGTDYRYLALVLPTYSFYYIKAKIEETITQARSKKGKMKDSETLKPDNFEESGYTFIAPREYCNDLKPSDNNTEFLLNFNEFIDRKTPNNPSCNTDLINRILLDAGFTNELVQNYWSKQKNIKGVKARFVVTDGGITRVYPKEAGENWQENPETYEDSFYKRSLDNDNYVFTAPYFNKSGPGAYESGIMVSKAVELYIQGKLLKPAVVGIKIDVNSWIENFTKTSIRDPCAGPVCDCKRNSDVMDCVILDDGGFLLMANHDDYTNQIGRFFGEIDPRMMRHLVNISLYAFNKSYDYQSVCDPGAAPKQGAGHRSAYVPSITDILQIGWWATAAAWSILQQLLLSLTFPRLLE
T2 sequence (P54290 945-1091 partner limits assumed, other chains not shown): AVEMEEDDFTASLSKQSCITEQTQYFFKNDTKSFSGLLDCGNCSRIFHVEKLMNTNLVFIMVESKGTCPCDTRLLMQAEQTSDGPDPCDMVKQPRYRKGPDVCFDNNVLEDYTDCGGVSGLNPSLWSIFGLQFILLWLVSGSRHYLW

IC50 [nM] | Compound
> 3000 | COc1cc2c(cc1CN[C@H]1CCCN[C@H]1c1ccccc1)N(C)C(=O)CC2.Cl.Cl [Compound 21, (2S,3S)-3-(6-Methoxy-1-methyl-2-oxo-1,2,3,4-tetrahydroquinolin-7-yl)methylamino-2-phenylpiperidine dihydrochloride]

Tested on: not given
Assay: not given
Conditions: not given

melting point [°C] | Compound
136 to 139 | COc1cc2c(cc1CN[C@H]1C3CCN(CC3)[C@H]1C(c1ccccc1)c1ccccc1)N(C)C(=O)CC2
236 to 238 | COc1cc2c(cc1CN[C@H]1CCCN[C@H]1c1ccccc1)N(C)C(=O)CCC2.Cl.Cl
234 to 236 | COc1cc2c(cc1CN[C@H]1CCCN[C@H]1c1ccccc1)C(C)(C)C(=S)N2C.Cl.Cl
235 to 237 | COc1cc2c(cc1CN[C@H]1CCCN[C@H]1c1ccccc1)N(C)C(=O)OC2.Cl.Cl
238 to 240 | CN1C(=O)CCc2cc(OC(F)F)c(CN[C@H]3CCCN[C@H]3c3ccccc3)cc21.Cl.Cl
225 to 256 | COc1cc2c(cc1CN[C@H]1CCCN[C@H]1c1ccccc1)C(C(F)(F)F)CC(=O)N2C.Cl.Cl (stereo partly drawn)
265 to 268 | COc1cc2c(cc1CN[C@H]1CCCN[C@H]1c1ccccc1)N(C)C(=O)CC2.Cl.Cl [Compound 21, (2S,3S)-3-(6-Methoxy-1-methyl-2-oxo-1,2,3,4-tetrahydroquinolin-7-yl)methylamino-2-phenylpiperidine dihydrochloride]
245 to 246 | COc1cc2c(cc1CN[C@H]1CCCN[C@H]1c1ccccc1)N(C)C(=S)CC2.Cl.Cl
257 to 260 | COc1cc2c(cc1CN[C@H]1CCCN[C@H]1c1ccccc1)N(C(C)C)C(=O)CC2.Cl.Cl
219 to 221 | COc1cc2c(cc1CN[C@H]1CCCN[C@H]1c1ccccc1)CCC(=S)N2C.Cl.Cl
260 to 263 | COc1cc2ccc(=O)n(C)c2cc1CN[C@H]1CCCN[C@H]1c1ccccc1.Cl.Cl
239 to 240 | CN1C(=O)CCc2cc(OCC(F)(F)F)c(CN[C@H]3CCCN[C@H]3c3ccccc3)cc21.Cl.Cl
252 to 254 | COc1cc2c(cc1CN[C@H]1CCCN[C@H]1c1ccccc1)N(C)C(=O)SC2.Cl.Cl
243 to 244 | COc1cc2c(cc1CN[C@H]1CCCN[C@H]1c1ccccc1)CCC(=O)N2C.Cl.Cl
125 to 128 | COc1cc2ccc(=O)n(C)c2cc1CN[C@H]1C2CCN(CC2)[C@H]1C(c1ccccc1)c1ccccc1
